{"source": "paper PMC9166630", "about": "“SAR Probing of KX2-391 Provided Analogues With Juxtaposed Activity Profile Against Major Oncogenic Kinases” (Frontiers in Oncology, 2022)", "key": {"Srm": {"molecular_target": "T1, Srm (Homo sapiens, UniProt Q9H3Y6)", "T1 construct": "endogenous in cells; host or cells: HL60 lysate", "T1 sequence (Q9H3Y6 whole entry)": "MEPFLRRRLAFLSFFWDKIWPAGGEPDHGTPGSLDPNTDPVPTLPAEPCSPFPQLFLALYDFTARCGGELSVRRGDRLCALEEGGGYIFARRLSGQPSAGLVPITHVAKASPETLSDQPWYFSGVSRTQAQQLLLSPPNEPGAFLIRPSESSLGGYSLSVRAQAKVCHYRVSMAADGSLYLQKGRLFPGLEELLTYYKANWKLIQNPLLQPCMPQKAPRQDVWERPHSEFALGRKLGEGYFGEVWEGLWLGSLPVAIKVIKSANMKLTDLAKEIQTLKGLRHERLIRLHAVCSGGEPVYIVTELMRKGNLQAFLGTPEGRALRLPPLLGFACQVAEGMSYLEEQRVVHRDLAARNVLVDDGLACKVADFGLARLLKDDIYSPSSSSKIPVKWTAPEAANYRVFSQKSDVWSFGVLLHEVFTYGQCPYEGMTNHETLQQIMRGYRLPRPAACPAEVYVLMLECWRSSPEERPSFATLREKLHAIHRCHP", "experiment": "PamChip tyrosine kinase microarray, Srm", "type": "biochemical", "conditions": "4e 0.1 µM, HL60 lysate", "procedure": "(§1) The changes in kinase activities induced by treatment with 4e were monitored within the HL60 cell lines using PamGene’s (Hertogenbosch, Netherlands) PamChip® peptide microarray profiler, which quantifies the activities of 144 tyrosine kinases (YK) ([29], [30]) (Figure 7). Results are provided as a log fold change (LFC) heatmap and Mean Kinase Statistic. From the LFC it is apparent that compound 4e, at a concentration of 0.1 µM, induced sizable changes to the activity of several kinases within the cell signaling YK profile (Figure 7A).\n(§2) An Upstream Kinase tool was used to generate a putative list of kinases responsible for phosphorylating the phospho-sites on the PamChip (Figure 7B) ([31]). It is an interpretation and is highly dependent on the contents of the underlying phosphorylation databases. A Kinase Score was used for ranking kinases based on their significance and specificity in terms of the set of peptides used for the corresponding kinase. Kinase Statistics indicates the overall change of the peptide set that represents the kinase. Kinase statistics value <0 indicates lower kinase activity in the compound spiked lysate and vice versa ([32], [33]). Table 5 lists the 20 most changed kinases within treated HL60 cell lysates by 0.1 μM 4e, ranked according to their Kinase Score.\n(§3) The compound 4e was spiked into HL60 cell lysate at different concentrations (0.001, 0.01, 0.1, 1, 10 and 50 μM). In addition, DMSO was also spiked in HL60 lysate at low concentration (2% v/v) as control. Samples were profiled on PamGene’s Tyrosine Kinase (PTK) arrays in technical replicates, covering a total of 196 phosphorylation sites. Frozen HL60 cultured cell pellet was sent to PamGene. At PamGene, cells were lysed using a lysis buffer and proteases inhibitors cocktail. Protein concentration was measured using standard Bradford assay as per PamGene SOPs. These lysates were further used for generating the PTK activity profiles. For spiking, 4e was received as powder form and dissolved in DMSO at PamGene facility followed by storing at -20°C in small aliquots. PamGene used its in-house bioinformatics toolbox in combination with other methods to generate hypotheses of signaling pathways."}, "ERK1/2": {"tested_on": "ERK1/2", "experiment": "Human phosphokinase array, ERK1/2", "type": "cell-based", "source_text": "The kinome tree representation (Figure 7C), which was generated by raising the Kinase Score cut-off to >1.2, confirmed that, unlike tirbanibulin and our prototype molecule KX1-136, 4e’s effects were more observable on kinases other than the Src family such as the Eph and TEC families. […] Therefore, we screened compound 4e using the Human Phospho-Kinase Array® kit from R&D systems (Minneapolis, MN, USA). In this system, 35 phosphorylated YK and serine-threonine kinase (STK) enzymes in the untreated (control) and treated (test) HL60 cell lysates were captured on nitrocellulose membrane, pre-spotted with phosphokinase-specific capture antibodies, and then visualized by detection antibody cocktails (Figure 8). The difference in the spot intensity between untreated (control) and treated cells is proportional to change in the amount of the phosphorylated protein induced by 4e.\nThe phosphorylation profile of 48 kinases was performed using the Proteome Profiler Human Phospho-Kinase Antibody Array Kit by R&D Systems (Minneapolis, MN, USA) according to the protocol. Briefly, the total cellular protein was extracted using the Lysis buffer and was quantified using Bio-Rad DC Protein Assay kit (Hercules, CA, USA). Nitrocellulose membrane set (A&B), pre-spotted with kinase-specific capture antibodies, were first blocked with Array Buffer-1 at RT for 30 min on a rocking platform shaker. Approximately 600 µg of protein concentrate was diluted in the buffer provided and was added onto the membrane set, and the membranes were incubated overnight at 4°C in an 8-well plate. Subsequently, membranes were washed with Wash Buffer and incubated with appropriate Detection Antibody cocktails for 2 h at RT. Streptavadin-HRP (1:2000) was added onto membranes and incubated for 30 min at RT. Membranes were washed, and Chemiluminescent Detection Reagents 1&2 were applied in equal volumes for detection. The signals were detected on C-DiGit®Blot Scanner (LI-COR, Odyssey Imaging Systems, Lincoln, Nebraska, USA) using Image Studio 5.0 software."}, "Fgr": {"molecular_target": "T2, Fgr (Homo sapiens, UniProt P09769)", "T2 construct": "endogenous in cells; host or cells: HL60 lysate", "T2 sequence (P09769 whole entry)": "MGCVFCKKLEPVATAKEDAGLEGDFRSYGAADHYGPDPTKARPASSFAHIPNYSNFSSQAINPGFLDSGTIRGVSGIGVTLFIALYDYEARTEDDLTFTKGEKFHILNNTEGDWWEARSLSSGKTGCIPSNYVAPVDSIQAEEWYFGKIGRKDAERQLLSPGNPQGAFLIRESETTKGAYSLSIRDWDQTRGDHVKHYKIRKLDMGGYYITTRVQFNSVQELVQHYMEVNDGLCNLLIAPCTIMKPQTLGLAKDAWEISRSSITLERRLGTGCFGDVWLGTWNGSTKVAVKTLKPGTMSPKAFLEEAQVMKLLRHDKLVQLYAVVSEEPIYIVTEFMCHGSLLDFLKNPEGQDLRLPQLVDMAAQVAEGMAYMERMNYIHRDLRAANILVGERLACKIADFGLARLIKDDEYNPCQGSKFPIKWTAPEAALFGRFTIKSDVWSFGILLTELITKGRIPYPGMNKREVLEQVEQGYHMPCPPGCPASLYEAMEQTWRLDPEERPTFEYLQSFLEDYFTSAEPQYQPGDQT", "experiment": "PamChip tyrosine kinase microarray, Fgr", "type": "biochemical", "conditions": "4e 0.1 µM", "procedure": "as §1, §2, §3"}, "EphA5": {"molecular_target": "T3, EphA5 (Homo sapiens, UniProt P54756)", "T3 construct": "endogenous in cells; host or cells: HL60 lysate", "T3 sequence (P54756 25-1037)": "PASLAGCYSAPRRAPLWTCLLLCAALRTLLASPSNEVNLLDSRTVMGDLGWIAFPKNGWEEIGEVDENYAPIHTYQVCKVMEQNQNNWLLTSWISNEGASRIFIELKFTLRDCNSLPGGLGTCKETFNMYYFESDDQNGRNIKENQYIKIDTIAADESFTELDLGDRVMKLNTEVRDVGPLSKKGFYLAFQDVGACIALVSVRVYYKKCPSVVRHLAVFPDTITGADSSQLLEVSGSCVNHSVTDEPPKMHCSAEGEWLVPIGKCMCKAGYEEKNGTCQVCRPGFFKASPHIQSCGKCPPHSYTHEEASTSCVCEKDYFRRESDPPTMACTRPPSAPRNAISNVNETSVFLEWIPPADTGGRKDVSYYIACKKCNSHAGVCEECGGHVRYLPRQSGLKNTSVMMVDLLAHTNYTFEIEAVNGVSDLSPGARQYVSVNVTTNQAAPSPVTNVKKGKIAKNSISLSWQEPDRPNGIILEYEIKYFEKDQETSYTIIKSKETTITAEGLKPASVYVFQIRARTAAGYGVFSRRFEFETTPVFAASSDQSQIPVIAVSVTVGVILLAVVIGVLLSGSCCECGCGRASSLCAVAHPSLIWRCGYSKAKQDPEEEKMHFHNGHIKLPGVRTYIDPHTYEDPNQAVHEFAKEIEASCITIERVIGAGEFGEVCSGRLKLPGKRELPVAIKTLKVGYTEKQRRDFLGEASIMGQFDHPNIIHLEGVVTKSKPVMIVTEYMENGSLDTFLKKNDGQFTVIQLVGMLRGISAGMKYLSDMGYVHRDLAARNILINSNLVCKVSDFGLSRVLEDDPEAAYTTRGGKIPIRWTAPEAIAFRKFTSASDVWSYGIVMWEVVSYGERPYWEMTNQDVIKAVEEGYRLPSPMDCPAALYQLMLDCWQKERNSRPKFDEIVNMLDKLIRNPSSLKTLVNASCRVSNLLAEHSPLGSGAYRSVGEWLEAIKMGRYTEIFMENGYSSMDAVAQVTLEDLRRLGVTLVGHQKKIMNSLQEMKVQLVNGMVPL", "experiment": "PamChip tyrosine kinase microarray, EphA5", "type": "biochemical", "conditions": "4e 0.1 µM, HL60 lysate", "procedure": "as §1, §2, §3"}, "Fes": {"molecular_target": "T4, Fes (Homo sapiens, UniProt P07332)", "T4 construct": "endogenous in cells; host or cells: HL60 lysate", "T4 sequence (P07332 whole entry)": "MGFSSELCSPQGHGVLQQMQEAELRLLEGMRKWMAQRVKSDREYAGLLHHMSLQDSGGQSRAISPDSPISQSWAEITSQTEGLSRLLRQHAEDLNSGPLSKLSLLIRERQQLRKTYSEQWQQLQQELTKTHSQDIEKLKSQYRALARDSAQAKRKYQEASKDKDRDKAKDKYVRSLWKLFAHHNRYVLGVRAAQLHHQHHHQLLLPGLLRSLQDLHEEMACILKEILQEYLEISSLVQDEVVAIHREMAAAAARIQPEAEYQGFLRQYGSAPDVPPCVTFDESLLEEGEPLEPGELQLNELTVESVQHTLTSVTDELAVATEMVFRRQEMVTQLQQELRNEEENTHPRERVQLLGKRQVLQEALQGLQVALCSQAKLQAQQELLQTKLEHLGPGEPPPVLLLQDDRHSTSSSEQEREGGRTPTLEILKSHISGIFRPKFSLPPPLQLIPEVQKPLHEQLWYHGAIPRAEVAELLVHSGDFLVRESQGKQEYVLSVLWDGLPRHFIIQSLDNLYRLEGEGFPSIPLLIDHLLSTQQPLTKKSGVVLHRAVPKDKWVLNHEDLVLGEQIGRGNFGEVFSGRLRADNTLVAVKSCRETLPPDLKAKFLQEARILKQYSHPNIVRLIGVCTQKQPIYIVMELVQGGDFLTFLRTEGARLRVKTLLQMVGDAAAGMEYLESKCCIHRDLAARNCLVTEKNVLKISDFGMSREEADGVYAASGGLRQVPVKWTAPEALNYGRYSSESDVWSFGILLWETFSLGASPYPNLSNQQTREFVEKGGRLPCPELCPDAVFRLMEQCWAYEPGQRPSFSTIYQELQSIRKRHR", "experiment": "PamChip tyrosine kinase microarray, Fes", "type": "biochemical", "conditions": "4e 0.1 µM, HL60 lysate", "procedure": "as §1, §2, §3"}, "HL60 cells": {"tested_on": "HL60 cells", "experiment": "Apoptosis detection (Annexin V-FITC/PI)", "type": "cell-based, human", "conditions": "HL60, 7 µM, 48 h", "procedure": "Integral to the cell cycle analysis of 4e, we determined the population of cells undergoing apoptosis, or programmed cell death, by Annexin V-FITC/PI double staining in HL60 cells. Two different concentrations of 4e (3.5 µM and 7 µM) were selected for treatment.\nTotal apoptosis was detected using Annexin V-FITC Apoptosis Detection kit (Cell Signaling Technology, Danvers, MA, USA) as per the protocol. Briefly, 1.5 x 10^5 of HL60 cells were plated in a 6-well plate with appropriate compound concentrations at 37°C for 48 h. After the incubation completed, cells were washed twice with ice-cold PBS (1X). Subsequently cells were stained with Annexin V-FITC/PI and incubated in the dark on ice for 20 min. After washing with PBS wash, the cells were analyzed by acquiring a minimum total of 5000 events using BD FACSAria III flow cytometer (BD Biosciences, USA)."}, "PDGFR[beta]": {"tested_on": "PDGFR[beta]", "experiment": "PamChip tyrosine kinase microarray, PDGFR[beta]", "type": "biochemical, human", "conditions": "4e 0.1 µM, HL60 lysate", "procedure": "as §1, §2, §3"}}, "note": "Where “and” joins values, the source holds several entries; their conditions need not be identical. Identical values can stand only once."}
{"molecule": "O=C(Cc1ccc(NC(=O)c2cccc(Cl)c2)cc1)NCc1ccccc1", "note": "[Compound 4e, N-(4-(2-(benzylamino)-2-oxoethyl)phenyl)-3-chlorobenzamide]", "values": [{"measurement": "Mean Final Score", "setting": "Srm", "value": 2.2692}, {"measurement": "Mean Kinase Statistic", "setting": "Srm", "value": -0.5863}, {"measurement": "Mean Significance Score", "setting": "Srm", "value": 1.1518}, {"measurement": "Mean Specificity Score", "setting": "Srm", "value": 1.1174}, {"measurement": "reduction of ERK1/2 activity", "setting": "ERK1/2; HL60, kinase profiling", "value": "> 99", "unit": "%"}, {"measurement": "phosphokinase signal after 4e exposure, ERK1/2", "setting": "ERK1/2; HL60 cell lysate, treated", "value": 1.05}, {"measurement": "% Change, ERK1/2", "setting": "ERK1/2; treated vs untreated HL60", "value": -99.41, "unit": "%"}, {"measurement": "Change in Signal, ERK1/2", "setting": "ERK1/2; treated vs untreated HL60", "value": -177.83}, {"measurement": "PamGene Ranking", "setting": "Fgr; HL60", "value": 7}, {"measurement": "Mean Final Score", "setting": "Fgr; HL60 lysate", "value": 2.2023}, {"measurement": "Mean Kinase Statistic", "setting": "Fgr; HL60 lysate", "value": -0.7971}, {"measurement": "Mean Significance Score", "setting": "Fgr; HL60 lysate", "value": 1.1688}, {"measurement": "Mean Specificity Score", "setting": "Fgr; HL60 lysate", "value": "1.03 and 1.0335"}, {"measurement": "Mean Final Score", "setting": "EphA5", "value": 2.9453}, {"measurement": "Mean Kinase Statistic", "setting": "EphA5", "value": -0.8931}, {"measurement": "Mean Significance Score", "setting": "EphA5", "value": 1.7474}, {"measurement": "Mean Specificity Score", "setting": "EphA5", "value": 1.1979}, {"measurement": "Mean Final Score", "setting": "Fes", "value": 2.3241}, {"measurement": "Mean Kinase Statistic", "setting": "Fes", "value": -0.6958}, {"measurement": "Mean Significance Score", "setting": "Fes", "value": 1.2140}, {"measurement": "Mean Specificity Score", "setting": "Fes", "value": 1.1101}, {"measurement": "percentage of apoptotic cells", "setting": "HL60 cells", "value": "increased significantly"}, {"measurement": "Mean Final Score", "setting": "PDGFR[beta]", "value": 1.8565}, {"measurement": "Mean Kinase Statistic", "setting": "PDGFR[beta]", "value": -0.5885}, {"measurement": "Mean Significance Score", "setting": "PDGFR[beta]", "value": 1.2570}, {"measurement": "Mean Specificity Score", "setting": "PDGFR[beta]", "value": 0.5995}]}
